“Also recorded” adds a separate entry of the source.
Experiments:
MCP-1 [1] = assay: LPS-induced MCP-1 ELISA in RAW264.7 macrophages (CDDO-EA batches); assay type: cell-based, mouse; settings: RAW264.7, 500 nM 1 hour then 100 ng/ml LPS 6 hr
Protocol: Macrophages were pre-treated with 500 nM CDDO-EA #1 or 500 nM CDDO-EA #2, for 1 hour. The microphages were then stimulated with 100 ng/ml of lipopolysaccharide (LPS) for 6 hr. Supernatants were collected from each culture. An enzyme linked immunoassay (ELISA) was performed to detect levels of the pro-inflammatory protein, monocyte chemotactic protein-1 (MCP-1). The macrophages were also treated with LPS alone or with CDDO-EA alone. A control (no treatment) group was also included in the study.
The second batch of CDDO-EA was tested for its biological property of anti-inflammatory activity. As with the first batch of CDDO-EA, this was tested by using the mouse macrophage cell line RAW264.7. RAW264.7 macrophages were pre-treated with 500 nM CDDO-EA for 1 hour then stimulated with 100 ng/ml of lipopolysaccharide (LPS) for 6 hr. Supernatants were collected, and an enzyme linked immunoassay (ELISA) was performed to detect the pro-inflammatory protein, monocyte chemotactic protein-1 (MCP-1). The macrophages were also treated with LPS alone or with CDDO-EA alone. A control (no treatment) group was also included in the study. […] This suppression of MCP-1 production by the second batch CDDO-EA is similar to that observed for the first batch of CDDO-EA. (See FIG. 21).

TNF-α [2] = assay: RT-PCR of PA-induced TNF-α gene expression in L6-GLUT4myc myotubes; assay type: cell-based, rat; settings: CDDO-EA 500 nM 1 h then PA 400 μM 6 h
Protocol: (§1) L6-GLUT4myc myotubes were pretreated with CDDO-EA (500 nM, 1 h) and treated PA (400 μM, 6 h). TNF-α and MCP-1 gene expression were measured by RT-PCR. Data are represented as +SEM *P<0.05 vs. control, ^#P<0.05 vs. control. * P<0.05 vs. LPS, $P<0.05 vs. PA. (One-Way ANOVA).

MCP-1 [3] = assay: RT-PCR of PA-induced MCP-1 gene expression in L6-GLUT4myc myotubes; assay type: cell-based, rat; settings: CDDO-EA 500 nM 1 h then PA 400 μM 6 h
Protocol: as §1

NFκB = assay: Western blot of palmitate (PA)-induced NFκB phosphorylation in L6-GLUT4myc myotubes; assay type: cell-based, rat; settings: CDDO-EA 500 nM 1 h then PA 400 μM 6 h
Protocol: L6-GLUT4myc myotubes were pretreated with CDDO-EA (500 nM, 1 h) and then treated with PA (400 μM, 6 h). NFκB phosphorylation and protein were measured by Western blotting. Data are represented as ±SEM. * P<0.05 vs. control; ^#P<0.05 vs. […]. (One-Way ANOVA).

p38 = assay: Western blot of p38 phosphorylation in L6-GLUT4myc myotubes; assay type: cell-based, rat; settings: CDDO-EA treated myotubes vs control
Protocol: FIG. 16B. The protein p38 has been reported to be involved in insulin-independent glucose metabolism. FIG. 16B represents results from a study performed to illustrate that CDDO-EA activated phosphorylation of p38. Immunoblotting was performed to measure the protein content of phosphorylated p38 and total p38 protein. Protein content of actin is used as a control to confirm protein loading is the same across the lanes of the immunoblot. […] The first row of horizontal bands is the Control group (bands #1, #2, and #3) content of phosphorylated p38 (P-p38) with no CDDO-EA treatment.
Western blotting and subcellular fractionation: L6-GLUT4myc myoblasts (4×10^4 cells/ml, 2 ml/well) were seeded onto 6-well dishes and differentiated with differentiation medium for 7 days. […] Protein concentrations were determined using the Pierce BCA Protein Assay (Thermo Fisher Scientific), and equal amounts of protein were separated by electrophoresis and subsequently transferred to nitrocellulose membranes. Membranes were analyzed using the following antibodies from Cell Signaling Technology: phosphorylated NF-κB (Ser536) (93 H1, cat #3033,1:1000), phosphorylated IKB-α (Ser32) (14D4, cat #2859,1:1000), IKB-α (44D4, cat #4812, 1:1000), phosphorylated p38 (Thr180/Tyr182) (cat #9211, 1:1000), p38 (cat #9212, 1:1000). […] Bands were quantitated using ImageQuant (GE Healthcare). […]

TNF-α [4] = assay: LPS-induced TNF-α ELISA in RAW 264.7 macrophages; assay type: cell-based, mouse; settings: RAW264.7, 500 nM CDDO-EA 1 hour then 100 ng/ml LPS 6 hours
Protocol: Cytokine detection: RAW 264.7 cells were grown on 24-well dishes at 1×10^6 cells/ml, 0.5 ml/well. Cells were pre-treated with CDDO-EA 500 nM for 1 h. After 1 h, cells were treated with 100 ng/ml of LPS16,18 (E. coli O111: B4, Sigma Aldrich) for 6 h, and supernatants were collected and stored at −80° C. until analysis. TNF-α from the culture media of cells was measured and quantified using a Mouse TNF (Mono/Mono) ELISA Set (BD Bioscience) according to the manufacturer's instructions.

Question: For `CCNC(=O)[C@]12CCC(C)(C)C[C@H]1C1C(=O)C=C3[C@@]4(C)C=C(C#N)C(=O)C(C)(C)[C@@H]4CC[C@@]3(C)[C@]1(C)CC2` (stereo partly drawn) [CDDO-EA, (4aS,6aR,6bS,8aR,12aS,14bS)-11-cyano-N-ethyl-2,2,6a,6b,9,9,12a-heptamethyl-10,14-dioxo-1,3,4,5,6,6a,6b, 7,8,8a,9,10,12a, 14,14a, 14b-hexadecahydropicene-4a (2H)-carboxamide], which “LPS-induced production of MCP-1” value (MCP-1 [1]) is on record?
Answer: The value was “significantly suppresses the LPS-induced production”.

Question: What about the “PA-induced TNF-α gene expression” value (TNF-α [2]) of the same compound?
Answer: Its value is “inhibits PA-induced NF-κB activation and MCP-1 and TNF-α gene expression; also recorded: blocks TNF-α and MCP-1 gene expression”.

Question: And the “PA-induced MCP-1 gene expression” value (MCP-1 [3])?
Answer: Its value is “inhibits PA-induced NF-κB activation and MCP-1 and TNF-α gene expression; also recorded: blocks TNF-α and MCP-1 gene expression”.

Question: And the “PA-induced NFκB phosphorylation” value (NFκB)?
Answer: The value was “inhibits PA-induced NF-κB activation; also recorded: inhibits PA-induced NFκB phosphorylation”.

Question: And the “p38 phosphorylation (normalized to total p38, percent over control)” value (p38)?
Answer: The value was “effective for inducing p38 phosphorylation; also recorded: two-fold increase in activation of p38 phosphorylation; also recorded: activates GLUT4 translocation to cell membrane and p38 phosphorylation”.

Question: What about the “total p38 protein expression” value (p38) of the same compound?
Answer: Its value is “had no effect on p38 protein expression”.

Question: What about the “LPS-induced TNF-α production” value (TNF-α [4]) of the same compound?
Answer: Its value is “substantially blocked; also recorded: inhibits LPS-induced cytokines secretion in macrophages”.

Reference: US20260207626A1, “SYNTHETIC TRITERPENOIDS AND COMPOSITIONS THEREOF IN WEIGHT MANAGEMENT, SKELETAL MUSCLE FUNCTION, AND APPETITE SUPPRESSION” (The Board of Regents of the University of Texas System, priority 2022, published 2026)
